From PubChem BioAssay AID1645862 (Buhrlage Lab, Dana-Farber Cancer Institute and Novartis …, 2021)
Activity calls are given as the source filed them. How the calls were made is not given here.

Target: Ubiquitin carboxyl-terminal hydrolase 8 (Homo sapiens) (UniProt P40818)
Assay: Ubiquitin-specific protease 8 inhibitors, concentration-effect, biochemical, validation of initial actives (AID 1645862);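 further: potency reflects inhibition of USP8 cleavage of a ubiquitin rhodamine substrate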
Conditions: recombinant USP8 deubiquitinase activity assay

Sequence of Ubiquitin carboxyl-terminal hydrolase 8 (Homo sapiens) (P40818 whole entry, looked up): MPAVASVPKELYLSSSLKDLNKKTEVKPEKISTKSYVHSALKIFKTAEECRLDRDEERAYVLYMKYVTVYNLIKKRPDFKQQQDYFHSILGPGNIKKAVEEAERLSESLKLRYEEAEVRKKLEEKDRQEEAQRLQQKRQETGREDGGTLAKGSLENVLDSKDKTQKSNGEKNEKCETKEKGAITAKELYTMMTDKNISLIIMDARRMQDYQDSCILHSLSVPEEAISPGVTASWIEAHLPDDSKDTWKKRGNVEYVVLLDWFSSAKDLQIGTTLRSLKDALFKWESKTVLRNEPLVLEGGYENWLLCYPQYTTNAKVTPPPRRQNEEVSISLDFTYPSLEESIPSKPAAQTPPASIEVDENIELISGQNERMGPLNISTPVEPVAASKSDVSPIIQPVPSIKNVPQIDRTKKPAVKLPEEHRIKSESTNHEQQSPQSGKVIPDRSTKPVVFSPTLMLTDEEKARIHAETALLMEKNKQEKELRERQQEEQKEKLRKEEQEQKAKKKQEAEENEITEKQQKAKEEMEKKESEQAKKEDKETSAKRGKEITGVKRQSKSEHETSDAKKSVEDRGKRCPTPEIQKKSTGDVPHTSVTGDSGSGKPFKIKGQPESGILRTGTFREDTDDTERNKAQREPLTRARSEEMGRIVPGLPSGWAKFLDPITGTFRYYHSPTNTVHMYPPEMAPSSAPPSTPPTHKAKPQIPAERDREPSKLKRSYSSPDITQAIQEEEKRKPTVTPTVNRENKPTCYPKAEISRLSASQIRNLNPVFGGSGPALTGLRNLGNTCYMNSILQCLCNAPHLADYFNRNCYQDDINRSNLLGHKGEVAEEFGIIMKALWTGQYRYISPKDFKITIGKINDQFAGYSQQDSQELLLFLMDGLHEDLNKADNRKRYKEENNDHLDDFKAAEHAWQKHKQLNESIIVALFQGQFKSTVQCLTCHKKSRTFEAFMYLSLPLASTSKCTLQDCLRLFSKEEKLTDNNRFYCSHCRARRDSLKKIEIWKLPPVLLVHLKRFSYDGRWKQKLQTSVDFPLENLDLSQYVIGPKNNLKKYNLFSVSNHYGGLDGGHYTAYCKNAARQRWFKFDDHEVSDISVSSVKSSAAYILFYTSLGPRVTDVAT

Row | IC50 | Compound
1 | > 40 µM (inactive) | O=C(CCn1c(=O)c2sccc2n(CC(=O)OCc2ccccc2)c1=O)NCc1ccc2c(c1)OCO2
2 | > 40 µM (inactive) | O=C(COc1ccc(N2CC(C(=O)NCc3ccccc3)CC2=O)cc1)Nc1ccc(F)cc1 (stereo not given)
3 | > 40 µM (inactive) | COc1ccc(C)cc1NC(=O)CN1C(=O)C2CCCC2=Nc2ccccc21 (stereo not given)
4 | > 40 µM (inactive) | Cc1nnc2ccc(-c3ccc(NC(=O)c4ccc(Br)o4)cc3)nn12
5 | > 40 µM (inactive) | COc1cc(OC)c(NC(=O)c2cc(-c3ccccn3)n[nH]2)cc1Cl
6 | > 40 µM (inactive) | COc1ccc(OC)c(NC(=O)c2cc(Cl)ccc2OC)c1
7 | > 40 µM (inactive) | COc1ccc(C(NC(=O)c2nc3n(n2)-c2ccccc2S(=O)(=O)N3)C(C)C)cc1 (stereo not given)
8 | > 40 µM (inactive) | CN(C)c1ccc(S(=O)(=O)N2CCCCC2)cc1NC(=O)COc1ccccc1
9 | > 40 µM (inactive) | O=C(CSc1oc(-c2ccc(F)cc2)nc1S(=O)(=O)c1ccc(F)cc1)Nc1ccc(F)cc1
10 | > 40 µM (inactive) | Cc1noc(C)c1COc1cccc(C(=O)Nc2cc(Cl)ccc2-n2cncn2)c1
11 | > 40 µM (inactive) | Cc1c(C(=O)NCc2cccc(Br)c2)oc2c1-c1[nH]ncc1CC2
12 | > 40 µM (inactive) | Cc1cccc(NC(=O)CNC(=O)c2ccc(-c3noc(C4CCCC4)n3)cc2)c1C
13 | > 40 µM (inactive) | O=C(Cn1c(=O)c2cccn2c2ccccc21)NCc1ccc(F)cc1
14 | > 40 µM (inactive) | Cc1cc(Cl)ccc1NC(=O)c1cc(-c2ccncc2)n[nH]1
15 | > 40 µM (inactive) | O=C(Cn1c(=O)n(Cc2ccc3c(c2)OCO3)c(=O)c2cccnc21)Nc1ccc(F)cc1
16 | > 40 µM (inactive) | COc1ccc(NC(=O)Cn2cc(C(=O)c3ccc(F)cc3)c(=O)c3cc(C)ccc32)cc1OC
17 | > 40 µM (inactive) | CN(C)c1cccc(-c2nnc(SCC(=O)Nc3ccc(F)cc3)n2-c2ccccc2)c1
18 | > 40 µM (inactive) | CCOc1ccc(-c2ccc3nnc(SCC(=O)Nc4ccc(F)cc4)n3n2)cc1
19 | > 40 µM (inactive) | CC1CCc2c(sc(NC(=O)c3cccc(S(C)(=O)=O)c3)c2C(N)=O)C1 (stereo not given)
20 | > 40 µM (inactive) | CCc1ccc(-n2cc(OC(C)=O)c3c2nc(C)n2c4ccccc4nc32)cc1
21 | 14 µM | O=C1c2ccccc2-c2nnc(-c3ccncc3)cc21
22 | > 40 µM (inactive) | Cc1cn2nnc(C(=O)Nc3ccc(OC(F)(F)F)cc3)c2c(=O)[nH]1
23 | > 40 µM (inactive) | CC(NC(=O)c1ccccc1)c1nc2ccccc2n1CC(=O)Nc1ccc2c(c1)OCO2 (stereo not given)
24 | > 40 µM (inactive) | O=C(Nc1ccc(F)cc1)Nc1ccccc1OCc1cc(=O)n2ccccc2n1
25 | > 40 µM (inactive) | COc1cc2c(cc1OC)-c1cc(Nc3ccc(Br)cc3)nc(=O)n1CC2
26 | > 40 µM (inactive) | Cc1cccc(NC(=O)Nc2nnc(CC(=O)NCc3ccccc3)s2)c1

Row | IC50 | Compound
27 | 25.5 µM | N#Cc1c(-c2ccc(Cl)cc2)cc(-c2cccc(Br)c2)[nH]c1=O
28 | > 40 µM (inactive) | COc1cc2c(c(OCC(=O)Nc3ccc4c(c3)OCCO4)c1)C(=O)O[C@@H](C)CCCC(=O)CCCCC2
29 | > 40 µM (inactive) | COc1cccc(N2CCCN(C(=O)c3ccc4nc(C)[nH]c4c3)CC2)c1
30 | > 40 µM (inactive) | CCCCOc1ccc(C(=O)n2ccn(S(=O)(=O)c3ccc(C)cc3)c2=O)cc1
31 | > 40 µM (inactive) | COc1ccccc1CNC(=O)CCCCn1c(=O)c2ccccc2n(Cc2ccc(C)cc2)c1=O
32 | > 40 µM (inactive) | CN1C(=O)COc2cc(-c3noc(C(=O)NCc4ccc(F)cc4)n3)ccc21
33 | > 40 µM (inactive) | N#Cc1cccc(NC(=O)Cn2cccc2-c2nc(-c3ccccc3)no2)c1
34 | > 40 µM (inactive) | O=C(Cc1nnc(NC(=O)Nc2ccc3c(c2)OCO3)s1)NCc1ccccc1
35 | > 40 µM (inactive) | COc1ccc(OC)c(NC2=NS(=O)(=O)C(c3cccc(Br)c3)=C2C)c1
36 | > 40 µM (inactive) | Cc1ccc2[nH]c(=O)c(-c3nc4ccccn4c3NCc3ccccc3)cc2c1
37 | > 40 µM (inactive) | O=C(Cn1c(=O)c2ccccc2n(CC(=O)Nc2cc(Cl)cc(Cl)c2)c1=O)NCc1ccco1
38 | > 40 µM (inactive) | Cc1cccc(C(=O)OCC(=O)Nc2ccc3[nH]c(=O)[nH]c3c2)c1C
39 | > 40 µM (inactive) | COc1ccc(-c2onc(C)c2C)cc1S(=O)(=O)NCc1ccc(F)cc1
40 | > 40 µM (inactive) | Cc1ccc(CNC(=O)Cn2c(=O)n(CCCC(=O)NCc3ccc(F)cc3)c(=O)c3ccccc32)cc1
41 | 28.6 µM | CC(C)c1ccc(NC(=O)c2cc(-c3cccnc3)n[nH]2)cc1
42 | > 40 µM (inactive) | CC(=O)c1ccc(NC(=O)C2CC(=O)Nc3nc(SCc4ccccc4)nn32)cc1 (stereo not given)
43 | > 40 µM (inactive) | COc1ccc(NC(=O)Cn2cc(C(=O)c3ccc(F)cc3)c(=O)c3cc(C)ccc32)cc1
44 | > 40 µM (inactive) | COc1ccc(CCNC(=O)CSc2cn(CCNC(=O)c3ccccc3C)c3ccccc23)cc1OC
45 | > 40 µM (inactive) | Cc1cc(-c2ccc(S(=O)(=O)NCc3ccc(Cl)cc3)s2)on1
46 | > 40 µM (inactive) | Cc1ccc(NC(=O)COc2ccccc2/C=C2/NC(=O)N(Cc3ccc(F)cc3)C2=O)cc1
47 | > 40 µM (inactive) | O=C(Nc1ccc2c(c1)CCC2)C1Cc2ccccc2CN1C(=O)c1ccccc1 (stereo not given)
48 | > 40 µM (inactive) | Cc1nc(SCC(=O)Nc2ccc(S(N)(=O)=O)cc2)c2cnn(-c3ccccc3)c2n1
49 | > 40 µM (inactive) | COc1ccc(Cl)cc1C(=O)NNC(=O)c1cc(-c2ccccc2)n[nH]1
50 | > 40 µM (inactive) | Cc1ccc(Nc2nc(O)c(CC(=O)Nc3ccc(C)cc3C)s2)cc1
51 | > 40 µM (inactive) | COc1ccc(CCC(=O)Nc2nnc(C3CC(=O)N(c4ccccc4)C3)s2)cc1 (stereo not given)

Further lines, the molecule ahead of its results:

Row | Compound | IC50
52 | N=C1/C(=C/c2cn(Cc3ccccc3F)c3ccccc23)C(=O)N=C2SC(C(F)(F)F)=NN12 | > 40 µM (inactive)
53 | Cc1nc2nc(C(c3ccccc3)c3ccccc3)[nH]n2c(=O)c1Cc1ccccc1 | > 40 µM (inactive)
54 | Cc1cccn2c(=O)c3cc(C#N)c(=O)n(-c4cccc(C(F)(F)F)c4)c3nc12 | > 40 µM (inactive)
55 | Cc1[nH]c2ccc(F)cc2c(=O)c1CN1CCCCC1 | > 40 µM (inactive)
56 | O=C(NCCc1nc2ccccc2n1CCCOc1ccccc1Cl)C1CCCCC1 | > 40 µM (inactive)
57 | Cc1cccc(OCCn2c(CCNC(=O)C3CCCCC3)nc3ccccc32)c1 | > 40 µM (inactive)
58 | Nc1ccc2oc(-c3cccc(-c4nc5cc(N)ccc5o4)n3)nc2c1 | 32.9 µM
59 | O=S1(=O)CCN(Cc2c(F)cccc2F)c2c(F)nc(N3CCOCC3)c(F)c21 | > 40 µM (inactive)
60 | c1cncc(-c2cnc3sc(NC4CCCCC4)nn23)c1 | > 40 µM (inactive)
61 | CCCCNC(=O)CSc1nnc(-c2cc3ccccc3n2C)o1 | > 40 µM (inactive)
62 | C/C(=C\Cc1c(O)cc(C)c(C=O)c1O)CC[C@@]1(C)[C@H](C)CCC(=O)[C@@H]1C | > 40 µM (inactive)
63 | NC(=O)c1nc(-c2cccnc2)nc2c1[nH]c(=O)n2-c1ccc2c(c1)OCO2 | > 40 µM (inactive)
64 | O=c1cc(Cc2ccccc2)nc2c(-c3ccccc3)c(COc3ccccc3)[nH]n12 | > 40 µM (inactive)
65 | Cn1c2ccccc2c(=O)c2c(=O)n(Cc3ccco3)c(-c3ccccc3F)nc21 | 29.4 µM
66 | O=C(CCCn1c(=O)c2sccc2n(CC(=O)NCCC2=CCCCC2)c1=O)NCc1ccc2c(c1)OCO2 | > 40 µM (inactive)
67 | COc1ccccc1Nc1ncc(C(=O)NCc2ccc(F)cc2)c2ccccc12 | > 40 µM (inactive)
68 | O=S(=O)(Nc1ccc(Oc2ncnc3cc(Cl)ccc23)nc1)c1ccc(S(=O)(=O)c2ccccc2)s1 | > 40 µM (inactive)
69 | O=C(O)CCCCCN1C(=O)CC(c2ccc(Cl)cc2)CC1=O | 31.8 µM
70 | O=C(c1cccnc1)N1CCCC(Cc2cc(-c3ncc[nH]3)ncn2)C1 (stereo not given) | > 40 µM (inactive)
71 | CCCC[C@@H](C)/C=C(C)/C=C(\C)C(=O)NC1=C[C@](O)(/C=C/C=C/C=C/C(=O)NC2=C(O)CCC2=O)[C@@H]2O[C@@H]2C1=O | > 40 µM (inactive)

Row | Compound | IC50
72 | O=C(c1ccccc1CN1CCOCC1)N1CCOCC2(C1)CN(c1ccc(F)cc1)C(=O)O2 (stereo not given) | > 40 µM (inactive)
73 | O=C(/C=C/c1ccc2c(c1)OCO2)Nc1nc2n(n1)C(c1ccccc1)CC(=O)N2 (stereo not given) | > 40 µM (inactive)
74 | CC(=O)O[C@@H](C/C=C(\C)C(=O)O)[C@@H](C)[C@H]1C[C@H](OC(C)=O)[C@@]2(C)C3=CC[C@H]4C(C)(C)[C@H](O)CC[C@]4(C)C3=CC[C@]12C | > 40 µM (inactive)
75 | O=c1c2ccccc2oc2nc(-c3cccs3)n(-c3ccccc3)c(=O)c12 | 2.3 µM
76 | O=C(NC1CCCCCC1)c1cccc(S(=O)(=O)Nc2cc(C(F)(F)F)ccc2Cl)c1 | > 40 µM (inactive)
77 | Cc1nn(-c2nc3ccccc3o2)c2c1C(c1cccc([N+](=O)[O-])c1)CC(=O)N2 (stereo not given) | > 40 µM (inactive)
78 | O=C(Nc1ccccc1-c1nc(-c2ccccn2)no1)c1cc(Cl)ccc1Cl | > 40 µM (inactive)
79 | CC(C)=CCc1c2c(c3occ(-c4ccc(O)cc4)c(=O)c3c1O)C=CC(C)(C)O2 | > 40 µM (inactive)
80 | FC(F)(F)c1ccc(Nc2nnnc3ccccc23)cc1 | > 40 µM (inactive)
81 | CC(C)Cc1ccc(-c2cc(-c3ccc(C(F)(F)F)cc3)c(C#N)c(=O)[nH]2)cc1 | > 40 µM (inactive)
82 | CCC(C)N1CNc2c(c(=O)[nH]c(=O)n2Cc2ccco2)C1 (stereo not given) | > 40 µM (inactive)
83 | CC(Nc1nnc(Cc2ccccc2)c(=O)[nH]1)c1ccccc1 (stereo not given) | > 40 µM (inactive)
84 | O=S(=O)(c1ccccc1Cl)N1CCN(c2ccc3nnc(-c4ccco4)n3n2)CC1 | > 40 µM (inactive)
85 | O=C(Cn1ccc2ccn(Cc3ccccc3)c2c1=O)Nc1ccccc1Cl | > 40 µM (inactive)
86 | FC(F)(F)c1cccc(Nc2nc(-c3ccccn3)nc3ccccc23)c1 | > 40 µM (inactive)
87 | O=C(Nc1ccc(C(F)(F)F)cc1)C1CC(=O)N(c2ccc3c(c2)OCCO3)C1 (stereo not given) | > 40 µM (inactive)
88 | COc1cc(CC(=O)Nc2ccccc2N2CCOCC2)cc(OC)c1OC | > 40 µM (inactive)
89 | COc1ccc2c(c1)CCc1c-2nc2ccccc2c1N1CCOCC1 | > 40 µM (inactive)
90 | O=C(Cn1c(=O)n(Cc2ccccc2)c(=O)c2ncccc21)NCc1ccccc1Cl | > 40 µM (inactive)
